# Values of other authors, collected in patent publication US20050249806A1, “Combination of proton pump inhibitor, buffering agent, and nonsteroidal anti-inflammatory drug” (Santarus, Inc., priority 2004, published 2005).
# Settings: not given
row,water solubility,SMILES
1,poor water solubility,COc1ccc2[nH]c([S+]([O-])Cc3ncc(C)c(OC)c3C)nc2c1 (stereo not shown) [omeprazole]

# Settings: pharmacokinetic half-life
row,half-life,SMILES
1,about 6 hours,CC(C(=O)O)c1ccc(-c2ccccc2)c(F)c1 (stereo not shown) [flurbiprofen]
2,up to 4 hours,Cc1cccc(Nc2ccccc2C(=O)O)c1C [mefenamic acid]
3,42 to 50 h,O=C(O)CCc1nc(-c2ccccc2)c(-c2ccccc2)o1 [oxaprozin]
4,8 to 9 h,O=C(c1ccccc1)c1ccc2n1CCC2C(=O)O (stereo not shown) [ketorolac]
5,22 to 30 h,COc1ccc2cc(CCC(C)=O)ccc2c1 [nabumetone]
6,about 7 hours,CCc1cccc2c3c([nH]c12)C(CC)(CC(=O)O)OCC3 (stereo not shown) [etodolac]
